Assay results taken from US4803157A, “Hydrolyzable fluorescent substrates for phosphatases and analytical use thereof” (Eastman Kodak Company, priority 1986, dated 1989).
Where a name gives a salt, the structure may show the parent alone.

Assays:
[1] = system: calf intestine alkaline phosphatase; test: Kinetic study of alkaline phosphatase with substrate (double reciprocal plot); assay type: biochemical; conditions: 540 nm, substrate 0.1-10 mmolar, enzyme 0.01 I.U./ml, sodium carbonate 100 mmolar, pH 10
Source text: The magnesium salt substrate prepared in Example 1 was used to determine reaction rates and kinetic parameters for alkaline phosphatase at 540 nm. The study was done by using the substrate (concentration range 0.1 mmolar to 10 mmolar), calf intestine alkaline phosphatase (0.01 I.U./ml), sodium carbonate (100 mmolar, pH 10), magnesium chloride (1 mmolar) and zinc perchlorate (1 mmolar). From the data obtained, a double reciprocal plot was drawn.

beef liver ALP = test: Solution assay for alkaline phosphatase (fluorescence); assay type: biochemical; conditions: excitation 535 nm, emission 580 nm
Description: A solution was prepared using the substrate of Example 1 (10^-5 molar), magnesium acetate ([…]) and TRIS buffer (0.1 molar, pH 8.5). One milliliter of this solution was placed in each of two test cells. To one cell was added beef liver ALP (100 μl, 10^-5 molar). No ALP was placed in the second cell.
The relative fluorescence of the solution in the test cell containing the ALP-hydrolyzed substrate was measured at an excitation of 535 nm and an emission of 580 nm. […]

For `O=C1C=Cc2ccc(OP(=O)(O)O)c3cccc1c23` [phenalenone-6-phosphate magnesium salt], the “rate of reaction (Vmax)” value [1] was 0.029 absorbance (A) units/minute and the Km ([1]; MgCl2 1 mmolar, zinc perchlorate 1 mmolar, read-out: Michaelis constant (Km)) was 1400 µM.

In the case of `O=C1C=Cc2ccc(OP(=O)(O)O)c3cccc1c23` [substrate of Example 1, PHENALENONE-6-PHOSPHATE], the “relative fluorescence of unhydrolyzed substrate” value (beef liver ALP; no ALP added) is reported as “Minimal fluorescence” and the “relative fluorescence of ALP-hydrolyzed substrate” value (beef liver ALP; substrate 10^-5 molar, TRIS 0.1 molar pH 8.5, with beef liver ALP) is reported as “rapid generation of fluorescence”.
